From patent publication US9125898B2, “Acetam derivatives for pain relief” (NEUROTUNE AG, priority 2008, dated 2015)
Entries after “also recorded” stand apart in the source; their conditions may differ.

What was measured:
Format in all cases: in vivo
[1] = test system: chronic constriction injury induced hyperalgesia in the rat; assay: Chronic constriction injury induced hyperalgesia in the rat (paw-pressure test); settings: for Paw pressure, pre-test before all treatments: baseline, drug 100 mg/kg p.o.; for Paw pressure, 5 day 30 min / Paw pressure, 10 day 30 min / Paw pressure, 14 day 30 min / Paw pressure, 14 day 4 h / Paw pressure, 14 day 8 h / Paw pressure, 15 day 24 h / Paw pressure, 18 day 3 days: 100 mg/kg p.o. once a day for 14 days
Method: In the repeated administration protocol, NT-13317 was orally administered at 100 mg/kg in 1% CMC once a day for 14 days starting from the day of sciatic nerve ligation.
Peripheral rat mononeuropathy (Chronic constriction injury): Neuropathy was induced according to the procedure described by Bennett and Xie (Bennett G J, Xie Y K. A peripheral mononeuropathy in rat that produces disorders of pain sensation like those seen in man. Pain 1988; 33: 87-107).
Briefly, rats were anaesthetized with chloral hydrate 400 mg/kg intraperitoneally (i.p.); under aseptic conditions, the right common sciatic nerve was exposed at the level of the middle thigh by blunt dissection. Proximal to the trifurcation, the nerve was carefully freed from the surrounding connective tissue and four chromic cat gut ligatures (4-0, Ethicon, Norderstedt, Germany) were tied loosely around it with about 1 mm spacing. After haemostasis was confirmed, the incision was closed in layers. Then animals were allowed to recover from anaesthesia and surgery and were kept one per cage with free access to water and standard laboratory chow.
(§1) Statistical analysis: All experimental results are given as the mean±S.E.M. An analysis of variance, ANOVA, followed by Fisher's protected least significant difference procedure for post hoc comparison, were used to verify significance between two means of behavioural results. Data were analyzed with the StatView software for the Macintosh (1992). P values≦0.05 were considered significant.
Data of mechanical threshold (PWT) were converted to a percentage of the maximal possible effect (% MPE), according to Veneroni, O. et al. as follows: %MPE=(left dose PWT−left pre-dose control PWT)/(left naïve PWT−left pre-dose PWT)*100
The obtained % MPE were employed for ED50 calculation (obtained by Grafit v. 5.0), defined as the dose producing 50% reversal of mechanical allodynia.

[2] = test system: oxaliplatin induced hyperalgesia in the rat; assay: Oxaliplatin induced hyperalgesia in the rat paw-pressure test; settings: for Paw pressure, pre-test before all treatments: baseline, drug 100 mg/kg p.o.; for Paw pressure, 1a week - 30 min / Paw pressure, 2a week - 30 min / Paw pressure, 3a week - 30 min / Paw pressure, 3a week - 4 h / Paw pressure, 3a week - 8 h / Paw pressure, 3a week - 24 h: drug 100 mg/kg p.o. once daily
Method: Drugs: The following substance was used: NT-13317 (batch No. RR0011-184A1 supplied by Brane Discovery Srl, Gerenzano Italy). NT-13317 was dissolved in DMSO 20%, 10% glucose and administered at the dose of 10, 30 and 100 mg/kg p.o.
Gabapentin (Sigma) was dissolved in 1% CMC (carboxymethylcellulose-Sigma) and orally administered at 100 mg/kg, and dissolved in saline and i.v. administered at 3 mg/kg.
Oxaliplatin model: A peripheral neuropathy was induced in adult rats, by administration of oxaliplatin (Tocris), at 2.4 mg/kg i.p. in saline once a day on days 1, 2, 3, 4, 5, 8, 9, 10, 11, 12, 15, 16, 17, 18, 19 (cumulative dose 36 mg/kg) according to [1].
In the first experiment NT-13317 and gabapentin were given chronically at the dose 100 mg/kg po starting 3 days before oxaliplatin and every day for 5 days/week for 3 weeks.
A dose-response experiment was then performed with NT-13317 (10, 30 and 100 mg/kg po) using the same treatment schedule.
Paw pressure test: Paw mechanical sensitivity was determined using a Randall & Selitto apparatus exerting a force that increases at constant rate (32 g/s). The stimulus at which rats withdrawn the paw was evaluated before and at different times after treatment. Results represent the mean of mechanical thresholds expressed as grams. To avoid any possible damage to the animal paw the maximum applied force was fixed at 240 g.
as §1, with “behavioral” for “behavioural”

[3] = test system: MIA induced hyperalgesia in the rat; assay: MIA induced hyperalgesia in the rat (paw-pressure test); settings: for Mechanical threshold, before treatment, first day basal: baseline
Source text: Peripheral neuropathic induced in rats by administration into the left knee joint of MIA mimics chronic pain condition of osteoarthritis found in a large part of population over 60 years. The MIA test represents an useful and predictive model to study the anti-hyperalgesic potential of a drug in human osteoarthritic condition.
Drugs: The following substances were used: NT-11624 (batch n 66-MM3/16 supplied by Brane Discovery Sri, Gerenzano Italy) and tramadol (Tocris, UK). […] Control rats received saline only.
Sodium monoiodoacetate injection: A single intra-articular injection of sodium iodoacetate (MIA) was introduced into the right knee joint. […] Briefly, rats were deeply anaesthetized by ethylic ether. Following abolition of the hindpaw pinch withdrawal reflex, a 27-gauge needle was introduced into the joint cavity between the tibial plateau and femoral condyles. Once in place, 2 mg of MIA were solubilized in a volume of 25 ul and injected into the joint and the animal was allowed to recover for 14 days prior to pain assessment. It has consistently been shown that this dose of MIA causes osteoarthritic-like focal lesions in articular cartilage and subchondral bone thickening 14 days after administration Guingamp C. et al. Arthritis Rheum 40, 1670-9 (1997). Therefore this model can easily and quickly reproduce osteoarthritic-like lesions and functional impairment in rats, similar to that observed in human disease.
The administration of MIA induces in rats a hyperalgesic response to mechanical stimuli that reaches its statistical significance 5 days after administration and persists for 4 weeks (Fernihough et al. Pain 112:83-93 (2004)).
Control rats were treated with an equal volume of saline. […]
Starting from day 17 after MIA injection, paw pressure tests were performed.
Mechanical hyperalgesia: Paw mechanical sensitivity was determined using a Randall & Selitto apparatus exerting a force that increases at constant rate (32 g/s). The stimulus at which rats withdrawn the paw was evaluated before treatment (First day basal) and at the end of the treatment as following: before last treatment (pre-dose), and after last treatment (15, 30, 45, 60 min, 24, 48 and 72 h).
Results represent the mean of mechanical thresholds expressed as grams. To avoid any possible damage to the animal paw the maximum applied force was fixed at 240 g.

[4] = MIA rats, 14 days b.i.d. p.o. (NT-11624 150 mg/kg, tramadol 40 mg/kg)
[5] = MIA rats, single p.o. administration on saline b.i.d. (NT-11624 150 mg/kg, tramadol 40 mg/kg)

Cc1ccc(N2C(=O)CN3C(=O)CCC32)cc1 (stereo not shown) [NT-13317, 1-p-tolyl-tetrahydropyrrolo[1,2a]imidazole-2,5-dione]
Paw pressure, pre-test before all treatments ([1]; CCI group): 60.7 ± 2.7 g
Paw pressure, 5 day 30 min ([1]; CCI): 41.6 ± 4.2 g
Paw pressure, 10 day 30 min ([1]; CCI): 51.9 ± 5.2 g
Paw pressure, 14 day 30 min ([1]; CCI): 53.4 ± 5.5 g
Paw pressure, 14 day 4 h ([1]; CCI): 52.9 ± 5.2 g
Paw pressure, 14 day 8 h ([1]; CCI): 51.6 ± 4.4 g
Paw pressure, 15 day 24 h ([1]; CCI): 47.8 ± 4.7 g
Paw pressure, 18 day 3 days ([1]; CCI): 43.6 ± 5.1 g
Paw pressure, pre-test before all treatments ([1]; SHAM group): 62.3 ± 3.5 g
Paw pressure, 5 day 30 min ([1]; SHAM): 57.7 ± 4.3 g
Paw pressure, 10 day 30 min ([1]; SHAM): 55.8 ± 5.0 g
Paw pressure, 14 day 30 min ([1]; SHAM): 59.2 ± 3.9 g
Paw pressure, 14 day 4 h ([1]; SHAM): 57.2 ± 4.4 g
Paw pressure, 14 day 8 h ([1]; SHAM): 63.2 ± 6.0 g
Paw pressure, 15 day 24 h ([1]; SHAM): 61.6 ± 5.2 g
Paw pressure, 18 day 3 days ([1]; SHAM): 60.7 ± 6.2 g
Activity relative to gabapentin ([1]; i.c.v. single administration): ten times more active than gabapentin
Effect on paw pressure test after the last administration (in words) ([1]; p.o. 100 mg/kg once a day for 14 days from the day of sciatic nerve ligation): significant effect on paw pressure test up to 24 hr
Dose-response experiment, 100 mg/kg ([2]; 100 mg/kg p.o.): confirmed the results of the first experiment
Effect 4 h after administration at the end of the third week ([2]; 100 mg/kg p.o.): retained maximal efficacy; also recorded: still a beneficial effect
Effect 8 hr after administration at the end of the third week ([2]; 100 mg/kg p.o.): not any more significant
Reduction of mechanical hyperalgesia over three weeks of treatment (in words) ([2]; 100 mg/kg p.o. once daily, 5 days/week for 3 weeks): statistically significant reduction of mechanical hyperalgesia; also recorded: maximal at the end of week 3
Dose-response experiment, lower doses ([2]; 10 and 30 mg/kg p.o.): inactive
Paw pressure, pre-test before all treatments ([2]; oxaliplatin i.p. group): 58.9 ± 3.7 g
Paw pressure, 1a week - 30 min ([2]; oxaliplatin i.p.): 68.7 ± 5.2 g
Paw pressure, 2a week - 30 min ([2]; oxaliplatin i.p.): 74.3 ± 6.1 g
Paw pressure, 3a week - 30 min ([2]; oxaliplatin i.p.): 79.2 ± 6.3 g
Paw pressure, 3a week - 4 h ([2]; oxaliplatin i.p.): 74.3 ± 4.3 g
Paw pressure, 3a week - 8 h ([2]; oxaliplatin i.p.): 53.5 ± 6.3 g
Paw pressure, 3a week - 24 h ([2]; oxaliplatin i.p.): 40.6 ± 5.0 g
Paw pressure, pre-test before all treatments ([2]; vehicle i.p. (no oxaliplatin) group): 60.6 ± 3.9 g
Paw pressure, 1a week - 30 min ([2]; vehicle i.p. (no oxaliplatin)): 63.0 ± 4.3 g
Paw pressure, 2a week - 30 min ([2]; vehicle i.p. (no oxaliplatin)): 66.1 ± 4.5 g
Paw pressure, 3a week - 30 min ([2]; vehicle i.p. (no oxaliplatin)): 74.8 ± 5.4 g
Paw pressure, 3a week - 4 h ([2]; vehicle i.p. (no oxaliplatin)): 73.8 ± 4.4 g
Paw pressure, 3a week - 8 h ([2]; vehicle i.p. (no oxaliplatin)): 68.5 ± 3.7 g
Paw pressure, 3a week - 24 h ([2]; vehicle i.p. (no oxaliplatin)): 69.9 ± 4.6 g

COc1cccc(C2(O)CCCCC2CN(C)C)c1 (stereo not shown) [TRAMADOL, tramadol, reference compound]
Mechanical threshold, after last treatment 15 min [3, 4]: 38.8 ± 2.2 g
Mechanical threshold, after last treatment 30 min [3, 4]: 36.4 ± 2.9 g
Mechanical threshold, after last treatment 45 min [3, 4]: 32.8 ± 3.4 g
Mechanical threshold, before treatment, first day basal ([3]; MIA rats, groups later treated 14 days b.i.d. p.o. (NT-11624 150 mg/kg, tramadol 40 mg/kg)): 59.2 ± 3.1 g
Mechanical threshold, before treatment, first day basal ([3]; MIA rats, single administration groups (saline 14 days b.i.d. first)): 62.8 ± 3.0 g
Mechanical threshold, before last treatment, pre-dose ([3]; MIA rats, single administration on saline b.i.d., before the single p.o. dose (NT-11624 150 mg/kg, tramadol 40 mg/kg)): 25.5 ± 3.8 g
Mechanical threshold, after last treatment 15 min [3, 5]: 39.2 ± 4.1 g
Mechanical threshold, after last treatment 30 min [3, 5]: 43.4 ± 3.6 g
Mechanical threshold, after last treatment 45 min [3, 5]: 36.2 ± 3.4 g
Mechanical threshold, after last treatment 60 min ([3]; MIA rats, single p.o. administration on saline b.i.d., tramadol 40 mg/kg): 27.2 ± 3.4 g
Effect of a single oral dose on mechanical threshold (in words) ([3]; single oral dose after saline b.i.d. for 14 days (NT-11624 150 mg/kg, tramadol 40 mg/kg)): significant anti-hyperalgesic effect from 15 to 60 min
Antihyperalgesic activity after the last treatment (in words) ([3]; treatment for 14 days b.i.d. p.o. (NT-11624 150 mg/kg, tramadol 40 mg/kg)): only a weak antihyperalgesic activity 15 and 30 min after the last treatment
